Results from patent US9771560B2, “High-throughput image-based chemical screening in zebrafish blastomere cell culture” (CHILDREN'S MEDICAL CENTER CORPORATION, priority 2012, dated 2017).
“Also recorded” adds a separate entry of the source. Structures can show the parent of a compound that is named as a salt.

Experiments:
[1] = test system: zebrafish blastomere cells; test: High-throughput image-based chemical screen in myf5-GFP; mylz2-mCherry zebrafish blastomere cell culture with bFGF; settings: medium supplemented with bFGF, 384-well, Celigo cytometer
From the text: (§1) FIGS. 2A-2C show the chemical genetic screens to identify modifiers of skeletal muscle development. FIG. 2A is a schematic of a high-throughput image-based chemical screening assay. Approximately 800 myf5-GFP; mylz2-mCherry double transgenic embryos were collected and disassociated at the oblong stage. The resulting blastomere cells were aliquoted into four 384-well plates with pre-added chemicals. We performed duplicates for each chemical to mitigate false positives. After 2 days, the 384-well plates were imaged using a Celigo cytometer. For each well, an image for each signal channel was captured. GFP and mCherry signals were determined by the Celigo cytometer's built-in software and confirmed by eye. […] Most of the hits could be grouped into three categories. […] The phenotype is presumptively due to inhibition of differentiation of muscle progenitors into mature muscle. […] This phenotype is presumptively due to the blocking of muscle progenitor commitment. […] Scale bars represent 250 μM. […] Scale bars represent 250 μM.
Disassociated blastomere cells were grown in zESC medium, which is composed of 70% LDF medium and 30% RTS34st-conditioned medium. The LDF medium contains 50% Leibowitz's L-15 (Invitrogen), 35% DMEM (Invitrogen), and 15% Ham's F-12 (Invitrogen), supplemented with 0.18 g/l sodium bicarbonate, 15 mM HEPES (Invitrogen), 1% L-Glutamine (Invitrogen), 10 μg/ml ciprofloxacin (Sigma-Aldrich), 100 μg/ml piperacillin (Sigma-Aldrich), 10 μg/ml amphotericin B (Sigma-Aldrich), 10 nM sodium selenite (Sigma-Aldrich), 1% N2 (Invitrogen), and 2% B27 (Invitrogen). The RTS34st conditioned medium was prepared by incubating fresh medium (Leibowitz's L-15 plus 15% FBS) on a confluent culture of RTS34st cells for 3 days.
(§2) Four 384-well plates were coated with 0.1% gelatin. Chemicals from the CHB library were diluted 150 times with zESC medium containing 1 ng/ml bFGF and were aliquoted 30 μl per well. Males and females of the myf5-GFP; mylz2-mCherry transgenic line were set up overnight and kept separated until morning when they were mixed for mate. Approximately 800 oblong-stage embryos were washed three times with E3 embryo water and were treated with pronase to remove chorions. Dechorionated embryos were washed with E3 embryo water three times and collected into a 50 ml falcon tube with 25 ml zESC medium containing 1 ng/ml bFGF. Embryos were disassociated by shaking approximately 20 times and were filtered through a 70 μm nylon mesh filter. The resulting single cells were diluted to 60 ml with zESC medium containing 1 ng/ml bFGF and aliquoted 30 μl per well into the four 384-well plates with pre-added chemicals. The cells were cultured in a 28-degree incubator without CO2. Cells were imaged by a Celigo cytometer (Cyntellect) under channels of GFP, mCherry, and transmitted light. The images were analyzed by the built-in software and confirmed eye.
To enable a higher throughput analysis of candidate modifiers of skeletal myogenesis, the embryo culture system was adapted to a semi-automated chemical screening platform. myf5-GFP; mylz2-mCherry embryos were collected from double transgenic parents and disassociated at the oblong stage. […] After one day, the cells were automatically imaged and analyzed using a Celigo cytometer for GFP, mCherry, and bright-field signals, and image analysis was confirmed by visual inspection (FIG. 2A).

[2] = test system: zebrafish embryos; test: Whole-mount in situ hybridization with myoD riboprobe in chemical-treated zebrafish embryos; format: in vivo; set-up: key to myoD expression: Level 1: decreased myoD staining at different levels, which are indicated in FIG. 9A; Level 2: decreased myoD staining at different levels, which are indicated in FIG. 9A; Level 3: decreased myoD staining at different levels, which are indicated in FIG. 9A; Level 4: decreased myoD staining at different levels, which are indicated in FIG. 9A; settings: for myoD expression: embryos treated at the sphere stage, assayed at the 6-somite stage, CHB library chemicals diluted 300-fold, compared with DMSO; for perturbation of muscle development in vivo (myoD riboprobe): treated at the sphere stage, 6-somite stage, diluted 300-fold
Description: FIGS. 9A-9C show the chemical genetics screens to identify modifiers of skeletal muscle development (related to FIG. 2) FIG. 9A, Embryos were treated with hits at the sphere stage. Once the control embryos reached the 6-somite stage, they were collected for whole-mount in situ hybridization with the myoD riboprobe. […] Flat mounted embryos stained with the myoD riboprobe at the 6-somite stage are shown with anterior to the left. Embryos were treated with (±)-6-Chloro-PB hydrobromide, LY-294002, 1-ACYL-PAF, or ATRA. All chemicals were from the CHB library and were diluted 300-fold. The level of myoD reduction was determined by comparing the intensity of myoD expression in these embryos with that in control embryos treated with DMSO. FIG. 9B, myf5-GFP; mylz2-mCherry embryos were collected at the oblong stage and disassociated. The resulting blastomere cells were aliquoted into a 96-well plate with pre-added chemicals. The culture medium contained 10 ng/ml bFGF to promote muscle development. Cells were treated with 50 μM tyrphostin AG 879, 50 μM tyrphostin AG 808, 50 μM tyrphostin AG 555, 50 μM PD 98059, 10 μM U0126, 10 μM LY-294002, 10 μM wortmannin, or 20 μM rapamycin. Cells were imaged after 2 days by the Celigo cytometer for GFP, mCherry, and bright-field signals. FIG. 9C, 1-cell-stage myf5-GFP; mylz2-mCherry embryos were injected with 250 pg fgf8-MO and 250 pg fgf24-MO and rescued by adding […] at the dome stage.
Whole mount in situ hybridizations were performed as previously described (Belting et al., 2001).

[3] = test system: human iPSCs (00409, 05400, and BJ)
Description: Cells were differentiated by generating EBs in suspension culture 7 days and then transferred to matrigel-coated plates for additional 29 days. During the suspension culture the cells received the differentiation medium STEMDiff Apel medium ([sequence] technologies) supplied with 10 ng/ml bFGF (Invitrogen), 0.5 μM BIO (Santa Cruz Biotechnologies) and 20 μM forskolin (Santa Cruz Biotechnologies). Two-three days after plating EBs, the medium was switched to DMEM complemented with 2% horse serum for the remaining differentiation.
Embryoid bodies (EBs) from BJ, 00409 or 05400 iPSCs were exposed for 7 days to a serum-free differentiation medium containing bFGF (10 ng/ml), BIO (0.5 μM) and forskolin (20 μM) (medium added at day 1, 3 and 5). […] After 7 days, we measured the expression of a panel of markers specific for ectoderm, endoderm or mesoderm to quantify differentiation outcomes.

[4] = test system: zebrafish blastomere cells; test: Culture of disassociated myf5-GFP; mylz2-mCherry blastomere cells in zESC medium (validation and pathway inhibitor tests); format: cell-based
Description: FIGS. 1A-1E show the chemical genetic screen to identify modifiers of skeletal muscle development. […] The yolk of the double transgenic embryo is mCherry positive, presumptively due to the maternal deposit of mCherry protein. mylz2-mCherry expression is not observed until 32 hpf. Its expression is first detected in anterior somites and then progressively spreads to posterior somites. […] Images were taken 48 hours after plating. Scale bars represent 250 μM. […] Blastomere cells from myf5-GFP; mylz2-mCherry embryos were cultured with or without bFGF and harvested at 24 hours. Results of bFGF treated cells are normalized to the expression of untreated cells. Error bars represent standard deviation (SD) from the triplicate quantitative RT-PCR reaction. All expressions are normalized to β-actin. […] Blastomere cells from myf5-GFP; mylz2-mCherry embryos were cultured with bFGF and harvested at 24 hours. Different populations were isolated by FACS. Results are normalized to the expression of cells of the double negative population. Error bars represent standard deviation (SD) from the triplicate quantitative RT-PCR reaction. All expressions are normalized to β-actin. […] 0.1% DMSO or 100 nM ATRA was added immediately. Images were taken 48 hours after plating. Scale bars represent 250 μM.
FIGS. 9A-9C show the chemical genetics screens to identify modifiers of skeletal muscle development (related to FIG. 2) FIG. 9A, Embryos were treated with hits at the sphere stage. Once the control embryos reached the 6-somite stage, they were collected for whole-mount in situ hybridization with the myoD riboprobe. […] Flat mounted embryos stained with the myoD riboprobe at the 6-somite stage are shown with anterior to the left. Embryos were treated with (±)-6-Chloro-PB hydrobromide, LY-294002, 1-ACYL-PAF, or ATRA. All chemicals were from the CHB library and were diluted 300-fold. The level of myoD reduction was determined by comparing the intensity of myoD expression in these embryos with that in control embryos treated with DMSO. […]

[5] = test system: zebrafish blastomere cells; test: Sensitized chemical screen in zebrafish blastomere cell culture in the absence of bFGF; format: cell-based
From the text: as §1, §2
The strong muscle promoting effect of bFGF made it difficult to identify enhancers of skeletal muscle development in our original system. Only one out of 2,400 chemicals was identified to promote muscle development. To sensitize the system for identifying enhancers of skeletal muscle development, we repeated the screen in the absence of bFGF. […] Among the six hits were three GSKβ inhibitor (kenpaullone, SB415286, and SB216763), two calpain inhibitors (E-64-D and MDL28170) and one cAMP activator forskolin.

Cl.NCCNC(=O)c1ncsc1-c1cccc(F)c1 [Ro 41-1049 hydrochloride]
change of myf5-GFP and mylz2-mCherry signals (hit category) [1]: decreased amount of both fluorescent colors | myoD expression [2]: Level 4

O=C1Nc2cc(Br)ccc2/C1=C1/Nc2ccccc2/C1=N\O [BIO, 6-Bromoindirubin-3′-oxime]
toxicity compared with other GSK3β antagonists [3]: lower toxicity

CC1=C(/C=C/C(C)=C/C=C/C(C)=C/C(=O)O)C(C)(C)CCC1 [ATRA, all-trans retinoic acid]
skeletal muscle development in vitro ([4]; zESC medium with bFGF, 100 nM ATRA, images 48 hours after plating): blocked skeletal muscle development; also recorded: blocks muscle development in vitro | myoD expression [2]: Level 4 | perturbation of muscle development in vivo (myoD riboprobe) [2]: verified to perturb muscle development in vivo

Cl.Cl.Cl.NCCCCNCCCN [Spermidine trihydrochloride]
myoD expression [2]: Level 1

CN(Cc1cnc2nc(N)nc(N)c2n1)c1ccc(C(=O)N[C@@H](CCC(=O)O)C(=O)O)cc1 [Methotrexate]
myoD expression [2]: No change

O=C1Cc2c([nH]c3ccc(Br)cc23)-c2ccccc2N1 [kenpaullone, 9-bromopaullone]
GFP and mCherry signals [5]: increase the GFP and mCherry signals

CCCC[N+]1(C)[C@@H]2C[C@@H](OC(=O)[C@H](CO)c3ccccc3)C[C@H]1[C@@H]1O[C@@H]12.[Br-] (single isomer, unassigned; (-)) [(-)-Scopolamine, n-Butyl-, bromide]
myoD expression [2]: Level 1

C=C1C(=O)O[C@@H]2C[C@@H](C)[C@@H]3C=CC(=O)[C@@]3(C)[C@@H](O)[C@H]12 [Helenalin]
myoD expression [2]: Toxic

Clc1cnc(Oc2ccc(Oc3ncc(Cl)cc3Cl)cc2)c(Cl)c1 [TCPOBOP]
change of myf5-GFP and mylz2-mCherry signals (hit category) [1]: only myf5-GFP expression

Cl.Oc1cc2c(c(Cl)c1O)CCNCC2c1ccccc1 (racemic) [(±)-6-Chloro-PB hydrochloride]
myoD expression [2]: Level 1 | perturbation of muscle development in vivo (myoD riboprobe) [2]: verified to perturb muscle development in vivo

O=C1NC(=O)C(c2ccccc2[N+](=O)[O-])=C1Nc1ccc(O)c(Cl)c1 [SB415286]
change of myf5-GFP and mylz2-mCherry signals (hit category) [1]: increased expression of both markers | GFP and mCherry signals [5]: increase the GFP and mCherry signals

CO[C@H]1C[C@@H]2CC[C@@H](C)[C@@](O)(O2)C(=O)C(=O)N2CCCC[C@H]2C(=O)O[C@H]([C@H](C)C[C@@H]2CC[C@@H](O)[C@H](OC)C2)CC(=O)[C@H](C)/C=C(\C)[C@@H](O)[C@@H](OC)C(=O)[C@H](C)C[C@H](C)/C=C/C=C/C=C/1C [Rapamycin]
myoD expression [2]: Level 2

N#C/C(=C\c1c[nH]c2ccccc12)C(=O)c1ccc(O)c(O)c1 [Tyrphosfin AG 808]
myoD expression [2]: Level 1

MDL28170
GFP and mCherry signals [5]: increase the GFP and mCherry signals

CCOC(=O)[C@H]1O[C@@H]1C(=O)N[C@@H](CC(C)C)C(=O)NCCC(C)C [E-64-D]
GFP and mCherry signals [5]: increase the GFP and mCherry signals

basic fibroblast growth factor [bFGF]
GFP and mCherry expression of cultured blastomere cells ([4]; bFGF added to zESC medium): majority of cells became GFP and mCherry double positive | expression of other myogenic genes (myoD, mrf4, myog), quantitative RT-PCR ([4]; cultured with bFGF, harvested at 24 hours): highly expressed

NC(=O)c1ccc(-c2nc(-c3ccccn3)c(-c3ccc4c(c3)OCO4)[nH]2)cc1 [SB-431542]
myoD expression [2]: No change

COCC(=O)O[C@]1(CCN(C)CCCc2nc3ccccc3[nH]2)CCc2cc(F)ccc2[C@@H]1C(C)C.Cl.Cl [Miberfradil dihydrochloride]
myoD expression [2]: Level 2

C[C@@H](NC(=O)/C(C#N)=C/c1ccc(O)c(O)c1)c1ccccc1 [Tyrphostin AG 527]
myoD expression [2]: No Change; also recorded: Level 1

CCCNC(=O)[C@H]1O[C@@H]1C(=O)N[C@H](C(=O)N1CCC[C@H]1C(=O)OC)[C@@H](C)CC [CA-074-Me]
change of myf5-GFP and mylz2-mCherry signals (hit category) [1]: only myf5-GFP expression

Cn1cc(C2=C(c3ccc(Cl)cc3Cl)C(=O)NC2=O)c2ccccc21 [SB216763]
GFP and mCherry signals [5]: increase the GFP and mCherry signals

CC(C)(C)c1cc(/C=C(\C#N)C(N)=S)cc(C(C)(C)C)c1O [Tyrphostin AG 879]
change of myf5-GFP and mylz2-mCherry signals (hit category) [1]: decreased amount of both fluorescent colors | myoD expression [2]: Toxic

O=c1cc(N2CCOCC2)oc2c(-c3ccccc3)cccc12 [LY-294,002 hydrochloride]
myoD expression [2]: Level 2
